Experimental data reported in US11241507B2, “Near-infrared chemiluminescent probes for in-vivo imaging” (RAMOT AT TEL-AVIV UNIVERSITY LTD., priority 2017, dated 2022).
One block for each compound: values may come before it.

Tests used:
[1] = Chemiluminescence properties of NIR luminophores under physiological conditions; assay type: physicochemical; settings: for ΦCL (chemiluminescence efficiency) / λ maxCL (maximal chemiluminescence emission): physiological conditions
Experimental: All reactions requiring anhydrous conditions were performed under an argon atmosphere. All reactions were carried out at room temperature unless stated otherwise. Chemicals and solvents were either A.R. grade or purified by standard techniques. TLC: silica gel plates Merck 60 F254: compounds were visualized by irradiation with UV light. Column chromatography (FC): silica gel Merck 60 (particle size 0.040-0.063 mm), eluent given in parentheses. RP-HPLC: C18 5u, 250×4.6 mm, eluent given in parentheses. Preparative RP-HPLC: C18 5u, 250×21 mm, eluent given in parentheses. ^1H-NMR spectra were recorded using Bruker Avance operated at 400 MHz. ^13C-NMR spectra were recorded using Bruker Avance operated at 100 MHz. Chemical shifts were reported in ppm on the δ scale relative to a residual solvent (CDCl3: δ=7.26 for ^1H-NMR and 77.16 for ^13C-NMR, DMSO-d6: δ=2.50 for ^1H-NMR and 39.52 for ^13C-NMR). Mass spectra were measured on Waters Xevo TQD. Fluorescence and chemiluminescence were recorded on Molecular Devices Spectramax i3x. Fluorescence quantum yield was determined using Hamamatsu Quantaurus-QY. All reagents, including salts and solvents, were purchased from Sigma-Aldrich. Light irradiation for photochemical reactions: LED PAR38 lamp (19 W, 3000K).
Next, we incubated our luminophores under physiological conditions and evaluated their properties. […] As expected, the chemiluminescence emission spectra correlate with the fluorescence spectra of their corresponding decomposition benzoate esters products. […] This difference is attributed to the reduced pKa of Luminophore 2, which accelerate the generation of enriched phenolate population that spontaneously undergoes the chemiexcitation process. The chemiluminescence efficiency of Luminophores 1 and 2 was calculated to be 0.82% and 1.12% respectively. These outstanding results encouraged us to investigate the imaging features of our NIR luminophores to serve as a reporter both in-vitro and in-vivo bioassays.

[2] = molecular target: T1, β-galactosidase in HEK293 cells transfected with the LacZ gene (Escherichia coli, UniProt P00722); experiment: Chemiluminescence imaging of HEK293-LacZ versus HEK293-wt cells; assay type: cell-based
T1 construct: expressed in transfected cells; host or cells: HEK293 (HEK293-LacZ)
Experimental: FIGS. 1A-1C show the chemiluminescence kinetic profiles of probes 1a [10 μM] in PBS, pH 7.4, in the presence and absence of 1.5 units/mL β-galactosidase at 37° C. (1A); chemiluminescence imaging of Probe 1a [5 μM] in HEK293 cells (1B); and quantification of signal intensities evolving from HEK293 cells (1C).
Images were obtained following 20 minutes incubation with cell culture medium containing Probe 3a (5 μM), and were recorded on BioSpace Lab PhotonIMAGER™.
(§1) The spectral performance of Probe 1a was evaluated by measuring the chemiluminescent signal over time while its incubation took place under physiological conditions in the presence and absence of β-galactosidase (FIG. 1A). […] The emission spectra of 1a overlaps with its parent Luminophore 1 as expected. Next, we investigated the feasibility of Probe 1a to image the over expression of endogenous β-galactosidase in HEK293 cells transfected with the LacZ gene. We incubated Probe 1a with HEK293-LacZ and HEK293-wt cells. […] The chemiluminescence signal was quantified as depicted in FIG. 1C.
In order to investigate the feasibility of Probe 3a to monitor the enzymatic activity of β-galactosidase in vitro, the probe [1 μM] was incubated for 30 minutes with transfected HEK293-LacZ cell that overexpress the enzyme β-galactosidase, and under the same conditions with HEK293-wt cell as a control. The chemiluminescent signal was collected for 4 hours from the samples and quantified as depicts in FIG. 3.

β-galactosidase = experiment: Chemiluminescence kinetic profile of probes in presence and absence of β-galactosidase; assay type: biochemical; settings: 37° C.
Experimental: FIGS. […] (1A); chemiluminescence imaging of Probe 1a [5 μM] in HEK293 cells (1B); and quantification of signal intensities evolving from HEK293 cells (1C).
as §1
The study in which the feasibility of Probe 1a to image the over expression of endogenous β-galactosidase in HEK293 cells transfected with the LacZ gene was repeated using Probe 3a, corresponding to Luminophore 3 wherein the phenol is masked with a β-galactosidase substrate as the responsive protecting group, and a short polyethylene-glycol ester is introduced instead of the […] acid residue, considering that cell permeability is reduced by negatively charged species.

endogenous H2O2 = experiment: In-vivo imaging of endogenous H2O2 in peritoneal cavity of mice, LPS-induced peritonitis
Experimental: (§2) FIGS. 4A-4C show the chemiluminescent kinetic profile of Probe 2a [10 μM] in serum, in the presence and absence of H2O2[50 μM] (4A); in-vivo imaging of endogenous H2O2 in the peritoneal cavity of mice during an LPS-induced inflammatory response, using probes 2a and 2b. Images of mice were recorded on BioSpace Lab PhotonIMAGER™. Group A: 1 mL of 0.1 mg/mL LPS was injected into the peritoneal cavity of mice, followed 4 h later by an IP injection of Probe 2a [100 μM, 100 μL in PBS]. Group B: 1 mL of 0.1 mg/mL LPS was injected into the peritoneal cavity of mice, followed 4 h later by an IP injection of Probe 2b [100 μM, 100 μL in PBS]. Group C: 1 mL PBS 7.4 was injected into the peritoneal cavity of mice, followed 4 h later by an IP injection of Probe 2a [100 μM, 100 μL in PBS 7.4] (4B); and quantification of signal intensities evolved from each group of mice (4C).
Since we established that our luminophores can serve as chemiluminescence reporter for in-vitro imaging we wanted to test their ability to image a whole animal. We tested the ability of Probe 2a to detect endogenous H2O2 by using a mouse model peritonitis that was induced by intraperitoneal injection of lipopolysaccharide (LPS). […] Three groups of mice were applied: (A) mice that were treated with LPS followed by the injection of probe 2a; (B) mice that were treated with LPS followed by the injection of Probe 2b; and (C) mice that were treated with vehicle control (PBS 7.4) followed by the injection of Probe 2a.
After 1 minute, a ratio of 19 was observed comparing the signal intensities of LPS treated and non-LPS treated mice which were injected with Probe 2a (groups A and C).

[3] = Chemiluminescence kinetic profile of probe in presence and absence of H2O2; settings: probe 10 μM in serum, presence vs absence of H2O2 50 μM
Experimental: as §2
At first, we wanted evaluated the ability of Probe 2a to detect H2O2, therefore we incubated Probe 2a in the presence and absence of H2O2 and monitored the emitted light.

[4] = probe 1 μM, 30 minutes incubation

T1 sequence (P00722 whole entry): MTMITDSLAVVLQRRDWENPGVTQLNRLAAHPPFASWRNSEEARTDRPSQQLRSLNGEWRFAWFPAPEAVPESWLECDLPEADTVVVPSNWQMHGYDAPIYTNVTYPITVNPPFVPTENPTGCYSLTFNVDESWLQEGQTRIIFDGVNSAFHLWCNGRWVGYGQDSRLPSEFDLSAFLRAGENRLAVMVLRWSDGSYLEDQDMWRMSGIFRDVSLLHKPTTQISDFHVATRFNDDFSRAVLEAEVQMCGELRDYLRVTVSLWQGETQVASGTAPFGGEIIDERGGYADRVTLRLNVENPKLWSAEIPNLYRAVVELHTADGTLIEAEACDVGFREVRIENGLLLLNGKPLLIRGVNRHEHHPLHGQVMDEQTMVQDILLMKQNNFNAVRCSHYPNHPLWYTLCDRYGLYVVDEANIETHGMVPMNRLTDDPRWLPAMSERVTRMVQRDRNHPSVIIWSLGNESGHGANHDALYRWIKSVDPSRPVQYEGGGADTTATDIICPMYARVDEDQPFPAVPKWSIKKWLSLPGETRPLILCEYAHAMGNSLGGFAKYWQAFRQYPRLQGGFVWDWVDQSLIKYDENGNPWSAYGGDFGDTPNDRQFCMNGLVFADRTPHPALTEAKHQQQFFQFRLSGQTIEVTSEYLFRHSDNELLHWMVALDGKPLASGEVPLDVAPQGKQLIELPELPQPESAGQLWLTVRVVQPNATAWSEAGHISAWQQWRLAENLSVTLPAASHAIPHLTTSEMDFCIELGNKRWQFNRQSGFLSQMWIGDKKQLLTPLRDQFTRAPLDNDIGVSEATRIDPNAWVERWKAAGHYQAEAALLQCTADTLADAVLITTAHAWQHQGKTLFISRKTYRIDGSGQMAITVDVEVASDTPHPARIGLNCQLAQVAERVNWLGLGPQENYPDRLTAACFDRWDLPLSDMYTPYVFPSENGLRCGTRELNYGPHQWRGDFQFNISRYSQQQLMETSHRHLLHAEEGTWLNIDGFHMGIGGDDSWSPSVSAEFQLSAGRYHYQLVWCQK

Structure (SMILES): COC1(c2cc(O)ccc2/C=C/C2=CC(=C(C#N)C#N)c3ccccc3O2)OOC12C1CC3CC(C1)CC2C3 (stereo not drawn) [Luminophore 1]
pKa [1]: ~8.8 | ΦCL (chemiluminescence efficiency) [1]: 0.82% | λ maxCL (maximal chemiluminescence emission) [1]: 660 nm

Structure (SMILES): COCCOCCOCCOCCOC(=O)/C=C/c1cc(/C=C/C2=C(C#N)C(=C(C#N)C#N)OC2(C)C)c(C2(OC)OOC23C2CC4CC(C2)CC3C4)cc1OCc1ccc(O[C@@H]2OC(CO)[C@H](O)[C@H](O)C2O)cc1 (stereo partly drawn) [Probe 3a]
signal ratio between transfected cells to wild type ([2]; HEK293-LacZ vs HEK293-wt, probe 1 μM incubated 30 minutes, signal collected 4 hours): 17 | chemiluminescent signal in HEK293-LacZ cells [2, 4]: intense chemiluminescent signal | chemiluminescent signal in HEK293-wt cells [2, 4]: unneglectable chemiluminescent signal | signal-to-noise ratio (β-galactosidase; probe 1 μM in PBS (100 mM) 7.4 with 10% serum, presence vs absence of β-galactosidase 1.5 EU/mL): 43

Structure (SMILES): COC1(c2cc(B3OC(C)(C)C(C)(C)O3)c(/C=C/C(=O)O)cc2/C=C/C2=CC(=C(C#N)C#N)c3ccccc3O2)OOC12C1CC3CC(C1)CC2C3 (stereo not drawn) [Probe 2a]
chemiluminescence signal right after probe injection (endogenous H2O2; group A (LPS + Probe 2a) compared with groups B and C): efficient chemiluminescence signal | signal ratio, LPS treated mice injected with Probe 2a vs Probe 2b (endogenous H2O2; groups A and B, IP probe 100 μM, 100 μL in PBS, 4 h after LPS): 45 | ratio of signal intensities, LPS treated vs non-LPS treated mice (endogenous H2O2; groups A and C, IP probe 100 μM, 100 μL in PBS, 4 h after LPS or PBS, after 1 minute): 19 | signal-to-noise ratio [3]: 57

Structure (SMILES): COC1(c2cc(O[C@@H]3OC(CO)[C@H](O)C(O)C3O)ccc2/C=C/C2=CC(=C(C#N)C#N)c3ccccc3O2)OOC12C1CC3CC(C1)CC2C3 (stereo partly drawn) [Probe 1a]
ratio between signal intensities of transfected cells to wild type cells ([2]; HEK293-LacZ vs HEK293-wt, probe 5 μM): 14 | chemiluminescent signal in HEK293-LacZ cells ([2]; probe 5 μM): intense chemiluminescent signal | chemiluminescent signal in HEK293-wt cells ([2]; probe 5 μM): negligible chemiluminescent signal | signal-to-noise ratio (β-galactosidase; probe 10 μM in PBS pH 7.4, presence vs absence of 1.5 units/mL β-galactosidase): 17

Results, then the compound that gave them:

pKa [1]: 6.72 | ΦCL (chemiluminescence efficiency) [1]: 0.95% | λ maxCL (maximal chemiluminescence emission) [1]: 730 nm
Structure (SMILES): COC1(c2ccc(/C=C/C3=CC(=C(C#N)C#N)c4ccccc4O3)c(O)c2Cl)OOC12C1CC3CC(C1)CC2C3 (stereo not drawn) [Luminophore 4]

pKa [1]: 7.35 | ΦCL (chemiluminescence efficiency) [1]: 1.12% | λ maxCL (maximal chemiluminescence emission) [1]: 690 nm
Structure (SMILES): COC1(c2cc(O)c(/C=C/C(=O)O)cc2/C=C/C2=CC(=C(C#N)C#N)c3ccccc3O2)OOC12C1CC3CC(C1)CC2C3 (stereo not drawn) [Luminophore 2]

pKa [1]: 7.71 | ΦCL (chemiluminescence efficiency) [1]: 0.70% | λ maxCL (maximal chemiluminescence emission) [1]: 670 nm
Structure (SMILES): COC1(c2cc(O)c(/C=C/C(=O)O)cc2/C=C/C2=C(C#N)C(=C(C#N)C#N)OC2(C)C)OOC12C1CC3CC(C1)CC2C3 (stereo not drawn) [Luminophore 3]
